This passage reports Emax, Kd and EC50 results from patent US20260001893A1, “SMALL MOLECULE MODULATORS OF STAT6” (Gilead Sciences, Inc., priority 2024, published 2026).

Assay [1] deals with Eotaxin-3 (CCL26) release in human whole blood stimulated with IL-4. The assay is described as follows: Human whole blood eotaxin-3 assay (IL-4 stimulated eotaxin-3 release). It counts as cell-based. Particulars: Homo sapiens, 48 h, human whole blood stimulated with recombinant human IL-4, 48 h, geometric mean; for Emax: given for test compounds with <80% Emax; for EC50: inhibition of eotaxin-3 release, given for test compounds with >80% Emax. Summed up: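 Eotaxin-3 (CCL26) release was quantified by MSD immunoassay in supernatants of human heparinised whole blood after 48 h at 37° C with IL-4 ([…] final). Compounds, in 4-fold dilutions at 0.5% DMSO, were added 2 h before stimulation.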

The target in assay [2] is T1, Human STAT6 (truncated, aa122-658, with N-terminal His-tag) (Homo sapiens, UniProt P42226).
T1 construct: Human STAT6 (truncated, aa122-658, with N-terminal His-tag, expressed in insect cells); His-tag (N); made in house; host or cells: insect cells
T1 sequence (P42226 122-658): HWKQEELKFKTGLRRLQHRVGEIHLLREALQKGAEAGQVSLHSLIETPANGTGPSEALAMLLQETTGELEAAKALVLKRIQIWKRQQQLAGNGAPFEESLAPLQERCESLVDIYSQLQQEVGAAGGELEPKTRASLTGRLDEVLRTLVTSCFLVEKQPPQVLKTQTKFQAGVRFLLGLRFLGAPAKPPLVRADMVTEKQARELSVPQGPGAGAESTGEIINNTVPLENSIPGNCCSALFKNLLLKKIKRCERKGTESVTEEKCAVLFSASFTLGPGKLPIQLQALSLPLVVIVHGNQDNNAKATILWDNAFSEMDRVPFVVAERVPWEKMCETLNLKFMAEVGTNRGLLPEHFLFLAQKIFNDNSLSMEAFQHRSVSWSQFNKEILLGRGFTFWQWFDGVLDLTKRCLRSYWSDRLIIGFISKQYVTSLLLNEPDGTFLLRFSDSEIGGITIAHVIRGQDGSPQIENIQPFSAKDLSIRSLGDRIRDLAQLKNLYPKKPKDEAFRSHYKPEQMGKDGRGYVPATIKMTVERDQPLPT
Briefly: Surface plasmon resonance (SPR) assay, binding to human STAT6. Particulars: Biacore 8K, 25° C, immobilized human STAT6 on CM5 chip, multi-cycle kinetics; geometric mean. An outline of the steps:
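Truncated STAT6 (aa122-658, N-His, insect-cell expressed) was amine-coupled to a CM5 chip, and compounds were run as multi-cycle kinetics at 25 °C in PBS-P+ with 2% DMSO (60 s contact, up to 300 s dissociation). KD came from steady-state isotherms at a late report point, fitted with free and with fixed theoretical Rmax (1:1).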

Molecules are shown by their SMILES.

The term Emax denotes the size of the effect at its maximum, as opposed to the concentration needed. Broadly, the Kd is the concentration at which binding is half-saturated. Read a high Kd as a looser complex. By EC50 is commonly meant the concentration at which the effect is half-maximal.

Consider `CN(C)C(=O)c1ccc(C2CCN(Cc3cc4c(-n5cc(F)c(N)nc5=O)ccnc4n3C)CC2)cc1` [Example 1ac2, 4-(1-((4-(4-Amino-5-fluoro-2-oxopyrimidin-1 (2H)-yl)-1-methyl-1H-pyrrolo[2,3-b]pyridin-2-yl)methyl)piperidin-4-yl)-N,N-dimethylbenzamide], for which the Emax in assay [1] fell in the range of 70 to 80%. In addition, binding in assay [2] was put at a Kd of 75.4 nM.
On to `CNc1ccn(-c2ccnc3c2cc(CN2CCC(c4ccc(C(=O)N(C)C)cc4)CC2)n3C)c(=O)c1` [Example 1d3, N,N-Dimethyl-4-[1-[[1-methyl-4-[4-(methylamino)-2-oxo-1-pyridyl]pyrrolo[2,3-b]pyridin-2-yl]methyl]-4-piperidyl]benzamide], for which the EC50 in assay [1] came to 84.1 nM. In assay [2], this compound had a dissociation constant Kd of 18.2 nM.
Consider `CNc1ccn(-c2ccnc3c2cc(CN2CCC(c4ccc(C(=O)N(C)C)cc4C)CC2)n3C)c(=O)c1` [Example 1d25, N,N,3-Trimethyl-4-[1-[[1-methyl-4-[4-(methylamino)-2-oxo-1-pyridyl]pyrrolo[2,3-b]pyridin-2-yl]methyl]-4-piperidyl]benzamide], for which the Emax in assay [1] was in the range of 70 to 80%. Also, the Kd in assay [2] was 69.2 nM.
On to `CNc1ccn(-c2ccnc3c2cc(CN2CCN(c4ccc(C(=O)N(C)C)cc4C)C[C@H]2C)n3C)c(=O)c1` [Example 1m19, (R)—N,N,3-Trimethyl-4-(3-methyl-4-((1-methyl-4-(4-(methylamino)-2-oxopyridin-1 (2H)-yl)-1H-pyrrolo[2,3-b]pyridin-2-yl)methyl)piperazin-1-yl)benzamide], for which the EC50 in assay [1] was 122 nM. The compound also displayed a dissociation constant (Kd) in assay [2] of 23.5 nM.
Consider `CNc1ccn(-c2ccnc3c2cc(CN2CC[C@@H](c4ccc(C(=O)N(C)C)cc4)[C@@H](F)C2)n3C)c(=O)c1` (single isomer, unassigned) [Example 1f7], for which, in assay [1], the EC50 was found to be 245 nM. Also, the Kd in assay [2] was determined as 21.7 nM.
On the same counts, the results for `CN(C)C(=O)c1ccc(C2CCN(Cc3cc4c(-n5ccc(N)cc5=O)ccnc4n3C)CC2)cc1` [Example 1d1, 4-[1-[[4-(4-Amino-2-oxo-1-pyridyl)-1-methyl-pyrrolo[2,3-b]pyridin-2-yl]methyl]-4-piperidyl]-N,N-dimethyl-benzamide] are 119 nM and 12.5 nM.
As to `CNc1ccn(-c2ccnc3c2cc(CN2CCN(c4ccc(C(=O)N(C)C)cc4C)CC2)n3C)c(=O)c1` [Example 1m6, N,N,3-Trimethyl-4-(4-((1-methyl-4-(4-(methylamino)-2-oxopyridin-1 (2H)-yl)-1H-pyrrolo[2,3-b]pyridin-2-yl)methyl)piperazin-1-yl)benzamide], in assay [1], the EC50 came to 74.7 nM. This compound also gave a Kd in assay [2] of 16.6 nM.
On the same counts, the results for `CNc1ccn(-c2ccnc3c2cc(CN2CCC(c4c(C)cc(C(=O)N(C)C)cc4C)CC2)n3C)c(=O)c1` [Example 1d27, N,N,3,5-Tetramethyl-4-[1-[[1-methyl-4-[4-(methylamino)-2-oxo-1-pyridyl]pyrrolo[2,3-b]pyridin-2-yl]methyl]-4-piperidyl]benzamide] are 25.1 nM and 16 nM.
With `CNc1ccn(-c2ccnc3c2cc(CN2CC=C(c4ccc(C(=O)N(C)C)cc4Cl)CC2)n3C)c(=O)c1` [Example 1m64, 3-Chloro-N,N-dimethyl-4-[1-[[1-methyl-4-[4-(methylamino)-2-oxo-1-pyridyl]pyrrolo[2,3-b]pyridin-2-yl]methyl]-3,6-dihydro-2H-pyridin-4-yl]benzamide], the EC50 in assay [1] stood at 170 nM. Also, binding in assay [2] was put at a Kd of 12 nM.
On the same counts, the results for `CN(C)C(=O)c1ccc(C2CCN(Cc3cc4c(-n5ccc6[nH]nc(C(F)(F)F)c6c5=O)ccnc4n3C)CC2)cc1` [Example 1ab3, N,N-Dimethyl-4-(1-((1-methyl-4-(4-oxo-3-(trifluoromethyl)-1,4-dihydro-5H-pyrazolo[4,3-c]pyridin-5-yl)-1H-pyrrolo[2,3-b]pyridin-2-yl)methyl)piperidin-4-yl)benzamide] are 193 nM and 20.4 nM.
On the same counts, the results for `[2H]C([2H])([2H])N(C(=O)c1ccc(C2CCN(Cc3cc4c(-n5ccc(NC)cc5=O)ccnc4n3C)CC2)cc1)C([2H])([2H])[2H]` [Example 1d4, 4-[1-[[1-Methyl-4-[4-(methylamino)-2-oxo-1-pyridyl]pyrrolo[2,3-b]pyridin-2-yl]methyl]-4-piperidyl]-N,N-bis(trideuteriomethyl)benzamide] are 221 nM and 20.9 nM.
The corresponding values for `CNc1ccn(-c2ccnc3c2cc(CN2CC=C(c4c(C)cc(C(=O)N(C)C)cc4C)CC2)n3C)c(=O)c1` [Example 1m12, N,N,3,5-Tetramethyl-4-(1-((1-methyl-4-(4-(methylamino)-2-oxopyridin-1 (2H)-yl)-1H-pyrrolo[2,3-b]pyridin-2-yl)methyl)-1,2,3,6-tetrahydropyridin-4-yl)benzamide] are 15.6 nM and 8.66 nM.
Take `COCc1c(N)ccn(-c2ccnc3c2cc(CN2CCC(c4ccc(C(=O)N(C)C)cc4)CC2)n3C)c1=O` [Example 1d30, 4-[1-[[4-[4-Amino-3-(methoxymethyl)-2-oxo-1-pyridyl]-1-methyl-pyrrolo[2,3-b]pyridin-2-yl]methyl]-4-piperidyl]-N,N-dimethyl-benzamide]: in assay [1], the EC50 stood at 88.4 nM. The compound further returned a Kd in assay [2] of 25 nM.
Turning to `[2H]C([2H])([2H])N(C(=O)c1ccc(C2=CCN(Cc3cc4c(-n5ccc(NC)cc5=O)ccnc4n3C)CC2)c(C)c1)C([2H])([2H])[2H]` [Example 1m10, 3-Methyl-N,N-bis(methyl-d3)-4-(1-((1-methyl-4-(4-(methylamino)-2-oxopyridin-1 (2H)-yl)-1H-pyrrolo[2,3-b]pyridin-2-yl)methyl)-1,2,3,6-tetrahydropyridin-4-yl)benzamide], the EC50 in assay [1] is 37.4 nM. Besides, binding in assay [2] was characterised by a dissociation constant (Kd) of 9.57 nM.
Consider `CNc1ccn(-c2ccnc3c2cc(CN2CC=C(c4ccc(C(=O)N(C)C)cc4OC)CC2)n3C)c(=O)c1` [Example 1m54, 3-Methoxy-N,N-dimethyl-4-(1-((1-methyl-4-(4-(methylamino)-2-oxopyridin-1 (2H)-yl)-1H-pyrrolo[2,3-b]pyridin-2-yl)methyl)-1,2,3,6-tetrahydropyridin-4-yl)benzamide], for which the EC50 in assay [1] amounted to 190 nM. The same compound registered a Kd in assay [2] of 18.5 nM.
